The text below walks through data of patent publication US6849602B1 (The Regents of the University of California, priority 1996, dated 2005).

Test [1] concerns neuroblastoma cells. The test is described as follows: Neurotrophic activity (neurite outgrowth, choline acetyltransferase, cell death). In kind it is cell-based.
Test [2] has as its system taxol-treated mice. The test is described as follows: Loss of thermal sensation (Hargreaves) in taxol-treated mice. In kind it is in vivo, mouse. As to the method: Mice were administered taxol in order to induce sensory neuropathy.
The loss of thermal sensation was measured using a Hargreaves sensory testing apparatus as an indicator of sensory neuropathy.

The subject of test [3] is Chung model rats. The test is described as follows: Tactile allodynia (von Frey, 50% paw withdrawal threshold) after bolus intrathecal injection in Chung model rats. In kind it is in vivo, rat. The settings on record: for activity in alleviating neuropathic pain as assayed using Chung rats: summary statement. As to the method:
Each of the three peptides were obtained in pure form by chemical synthesis, dissolved in sterile PBS and buffered to a neutral pH.
The surgical procedure previously described by Kim and Chung, supra (1992) was performed on male Sprague-Dawley rats weighing 120 to 150 grams to induce an allodynic state. Briefly, the rats were anesthetized with halothane; subsequently, the left L-5 and L-6 spinal nerves were isolated adjacent to the vertebral column and ligated with 6.0 silk suture distal to the dorsal root ganglion.
After a ten to fourteen day post operative recovery period, a spinal catheter was introduced. Five days following the second surgery, intrathecal drug administration was accomplished using a gear driven micro-injection syringe connected to a spinal catheter inserted through the foramen magnum. Prior to testing, the rats were placed in clear plastic wire meshed cages and allowed to acclimate.
To assess the 50% mechanical threshold for paw withdrawal, a von Frey hair was applied to the hind foot avoiding the foot pad. Each of the von Frey hairs, which are calibrated to bend at increasing log forces, were pressed perpendicularly to the foot with sufficient force to cause slight bending for a duration of approximately six to eight seconds. A positive response was noted if the foot was sharply withdrawn. Six data points were collected for each point with the maximum and minimum stimulus noted for each time point. The resulting pattern of the responses was tabulated, and the 50% response threshold was computed. The graph gives the response to the indicated dosage of peptide given as a single intrathecal bolus injection. The X-axis indicates the time after the injection at which point the hypersensitivity to pressure on the foot pad was measured.

The subject of test [4] is neuroblastoma cells. The conditions noted are these: O'Brien et al.; cited from earlier work.
For test [5], the system named is normal male Sprague Dawley rats. The test is described as follows: Hot plate response latency in normal rats after intrathecal injection. The settings on record: hot plate 52.5° C., up to 180 minutes after intrathecal injection. In kind it is in vivo, rat. As to the method:
Briefly, the period of time before the rat withdraws the affected foot from a source of heat is defined as the hot plate latency and is a measure of tolerance to pain caused by a heat stimulus.
An intrathecal catheter was placed into normal male Sprague Dawley rats. […] Rats were examined on the hot plate (52.5° C.); hot plate response latencies were measured prior to injection and at various time points up to 180 minutes after the injection.

Entries after “also recorded” stand apart in the source; their conditions may differ. No end group written: not given here.

Turning to “TKSIDNNKTEKEIL [SEQ ID NO:10, substitution of the conserved leucine residue]”, the neurotrophic activity entry in test [1] was “lacks neurotrophic activity”.
Regarding CEFLVKEVTKLIDNNKTEKEIL [SEQ ID NO:1], the “loss of thermal sensation” value in test [2] (100 μg/kg) is recorded as “the loss of thermal sensation was inhibited”. Moreover, in test [2] (similarly assayed, dose not stated), the “loss of thermal sensation” value is listed as “effective in inhibiting less of thermal sensation”. For the same sequence, the “duration of effect following administration” value in test [3] (FIG. 1) came to 3 h. The “latest time point with significantly reduced allodynia” value in test [3] (highest dose, intrathecal) was at least 180 min. Further, in test [3] (intrathecal bolus), the “time after injection to significant effect” value is at most 15 min and the “time of maximum (peak) effect post-injection” value is 120 min. In test [3] (intrathecal injection of 0.007 μg), the “tactile allodynia (force threshold)” value is reported as “no significant reduction in allodynia”. Also, the “tactile allodynia (force threshold)” value in test [3] (intrathecal injection of 0.7 or 0.07 μg) is listed as “suppressed allodynia in a dose-dependent fashion”. For the same sequence, the “activity in alleviating neuropathic pain as assayed using Chung rats” value in test [3] is on record as “reduces the painful allodynia; also recorded: alleviate neuropathic pain”. Further, the neurotrophic activity entry in test [1] was “have neurotrophic activity”. In addition, in test [4], the “cell death in neuroblastoma cells” value is given as “prevents cell death in neuroblastoma cells”, the choline acetyltransferase activity entry is “stimulates” and the neurite outgrowth entry is given as “stimulates neurite outgrowth”. Also, in test [5], the “hot plate response latency” value is listed as “No significant elevation of the hot plate response latency”.
As to “TKLIDNDKTEKEIL [SEQ ID NO:9, substitution of the second conserved asparagine residue]”, the neurotrophic activity entry in test [1] was “lacks neurotrophic activity”.
On the same count and under the same terms, next, LIDNNKTEKEIL [SEQ ID NO:3]: “active as a neurotrophic factor”.
On to CEFLVKEVTKLIDDNKTEKEIL [SEQ ID NO:8], for which the allodynic response entry in test [3] (injection of 17.5 μg) was “No change in the allodynic response”. Also, the entries for the “activity in alleviating neuropathic pain as assayed using Chung rats” value in test [3] and in test [3] (listed as SEQ ID NO8) were “inactive in alleviating neuropathic pain” and “lacks activity in alleviating neuropathic pain”, respectively. Also, the neurotrophic activity entry in test [1] is on record as “lacks neurotrophic activity”.
